Assay [1] in a line: Binding affinity to Mycobacterium smegmatis ATCC 700084 CYP164A2 in presence of 0.5 M NaCl at pH7.5. Also on record: species or system Mycolicibacterium smegmatis.
A short description of assay [2]: Selectivity ratio, ratio of Kd for Mycobacterium smegmatis ATCC 700084 CYP164A2 to Kd for Mycobacterium tuberculosis CYP121.
A short description of assay [3]: Binding affinity to Mycobacterium smegmatis ATCC 700084 CYP51 in presence of 0.5 M NaCl at pH7.5. Also on record: species or system Mycolicibacterium smegmatis.
Assay [4] in a line: Binding affinity to Mycobacterium smegmatis ATCC 700084 CYP164A2 at pH7.5. Also on record: species or system Mycolicibacterium smegmatis.
In assay [5] the test system is Mycolicibacterium smegmatis. Nature of the assay: Selectivity ratio, ratio of Kd for Mycobacterium smegmatis ATCC 700084 CYP164A2 to Kd for Mycobacterium smegmatis ATCC 700084 CYP51.
Assay [6] in a line: Binding affinity to Mycobacterium smegmatis ATCC 700084 CYP51 at pH7.5. Also on record: species or system Mycolicibacterium smegmatis.
The target in assay [7] is T1, Sterol 14alpha-demethylase (Mycobacterium tuberculosis, UniProt P9WPP9).
T1 sequence (P9WPP9 whole entry): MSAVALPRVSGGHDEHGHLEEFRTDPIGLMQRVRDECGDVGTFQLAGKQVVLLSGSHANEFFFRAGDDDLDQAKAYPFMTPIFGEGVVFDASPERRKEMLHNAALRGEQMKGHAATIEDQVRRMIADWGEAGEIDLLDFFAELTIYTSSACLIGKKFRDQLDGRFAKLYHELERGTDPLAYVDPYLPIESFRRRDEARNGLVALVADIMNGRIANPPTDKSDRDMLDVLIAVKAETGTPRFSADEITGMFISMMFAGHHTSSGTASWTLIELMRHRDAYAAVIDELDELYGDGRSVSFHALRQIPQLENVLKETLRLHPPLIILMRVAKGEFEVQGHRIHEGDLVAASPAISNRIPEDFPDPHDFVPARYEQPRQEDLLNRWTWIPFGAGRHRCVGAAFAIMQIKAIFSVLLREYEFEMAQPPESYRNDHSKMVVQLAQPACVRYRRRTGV
Description: Binding affinity to Mycobacterium tuberculosis CYP51

Assay [8] relates to Mycolicibacterium smegmatis. Kind of assay: Selectivity ratio of Kd for Mycobacterium smegmatis ATCC 700084 CYP164A2 in presence of 0.5 M NaCl to Kd for Mycobacterium smegmatis ATCC 700084 CYP164A2.
Assay [9] addresses T2, Lanosterol 14-alpha demethylase (Bos taurus, UniProt Q4PJW3).
T2 sequence (Q4PJW3 whole entry): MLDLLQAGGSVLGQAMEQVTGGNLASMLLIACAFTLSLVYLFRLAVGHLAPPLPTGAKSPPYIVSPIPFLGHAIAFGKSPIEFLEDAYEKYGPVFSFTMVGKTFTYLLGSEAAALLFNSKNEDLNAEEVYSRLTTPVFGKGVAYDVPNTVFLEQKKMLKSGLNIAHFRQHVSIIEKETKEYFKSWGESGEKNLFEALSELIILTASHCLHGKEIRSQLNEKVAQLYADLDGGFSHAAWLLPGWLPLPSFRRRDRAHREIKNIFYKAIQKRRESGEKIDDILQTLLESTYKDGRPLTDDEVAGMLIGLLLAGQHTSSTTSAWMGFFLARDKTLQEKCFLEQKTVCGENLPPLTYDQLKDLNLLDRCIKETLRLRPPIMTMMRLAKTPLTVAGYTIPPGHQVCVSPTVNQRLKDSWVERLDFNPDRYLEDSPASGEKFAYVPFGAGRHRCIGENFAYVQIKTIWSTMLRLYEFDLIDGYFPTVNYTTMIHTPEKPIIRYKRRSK
Nature of the assay: Binding affinity to bovine CYP51.

For the next assay, the target named is T3, Cytochrome P450 130 (Mycobacterium tuberculosis, UniProt P9WPN5).
T3 sequence (P9WPN5 whole entry): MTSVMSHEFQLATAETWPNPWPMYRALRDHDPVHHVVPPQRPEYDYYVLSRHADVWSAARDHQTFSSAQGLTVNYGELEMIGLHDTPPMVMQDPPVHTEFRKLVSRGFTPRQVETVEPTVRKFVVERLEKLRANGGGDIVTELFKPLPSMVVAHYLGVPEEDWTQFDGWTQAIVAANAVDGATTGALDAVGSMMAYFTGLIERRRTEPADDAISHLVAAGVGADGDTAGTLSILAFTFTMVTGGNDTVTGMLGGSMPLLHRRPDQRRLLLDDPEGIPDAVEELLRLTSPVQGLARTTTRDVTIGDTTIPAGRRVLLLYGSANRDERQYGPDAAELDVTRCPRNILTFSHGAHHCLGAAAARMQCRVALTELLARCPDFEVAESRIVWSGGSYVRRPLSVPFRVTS
Kind of assay: Binding affinity to Mycobacterium tuberculosis CYP130.

The target in the next assay is T4, Mycocyclosin synthase (Mycobacterium tuberculosis, UniProt P9WPP7).
T4 sequence (P9WPP7 whole entry): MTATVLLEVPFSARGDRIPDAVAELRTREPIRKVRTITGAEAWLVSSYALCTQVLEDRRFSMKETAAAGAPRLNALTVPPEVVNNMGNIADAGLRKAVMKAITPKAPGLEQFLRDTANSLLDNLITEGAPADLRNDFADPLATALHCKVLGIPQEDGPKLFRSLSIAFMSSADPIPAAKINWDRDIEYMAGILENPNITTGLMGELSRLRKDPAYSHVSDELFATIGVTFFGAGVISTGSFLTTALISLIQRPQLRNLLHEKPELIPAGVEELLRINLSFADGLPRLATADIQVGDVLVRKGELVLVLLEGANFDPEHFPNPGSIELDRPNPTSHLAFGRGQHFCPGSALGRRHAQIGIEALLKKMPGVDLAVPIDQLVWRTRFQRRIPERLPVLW
Kind of assay: Binding affinity to Mycobacterium tuberculosis CYP121.

Assay [10] can be described thus: Binding affinity to Mycobacterium smegmatis ATCC 700084 CYP164A2 in presence of 2 M NaCl. Also on record: species or system Mycolicibacterium smegmatis.
Assay [11] in a line: Binding affinity to Mycobacterium smegmatis ATCC 700084 CYP164A2 in presence of 0.1 M NaCl. Also on record: species or system Mycolicibacterium smegmatis.
Assay [12] has as its system Mycolicibacterium smegmatis. Nature of the assay: Selectivity ratio, ratio of Kd for Mycobacterium smegmatis ATCC 700084 CYP164A2 in presence of 0.3 M NaCl to Kd for Mycobacterium smegmatis ATCC 700084 CYP164A2.
Assay [13] can be described thus: Binding affinity to Mycobacterium smegmatis ATCC 700084 CYP164A2 in presence of 1 M NaCl. Also on record: species or system Mycolicibacterium smegmatis.
The nature of assay [14]: Binding affinity to Mycobacterium smegmatis ATCC 700084 CYP164A2 in presence of 0.2 M NaCl. Also on record: species or system Mycolicibacterium smegmatis.
Assay [15] in a line: Binding affinity to Mycobacterium smegmatis ATCC 700084 CYP164A2 in presence of 0.3 M NaCl. Also on record: species or system Mycolicibacterium smegmatis.
Assay [16] is described as follows: Binding affinity to Mycobacterium smegmatis ATCC 700084 CYP164A2 in presence of 0.05 M NaCl. Also on record: species or system Mycolicibacterium smegmatis.

pKd: −log10 of the molar value.

As a reminder, the pKd is −log10 of the Kd, conventionally taken in molar units. For `Clc1ccc(COC(Cn2ccnc2)c2ccc(Cl)cc2Cl)cc1` (stereo not given) [ECONAZOLE], the pKd is 5.03 in assay [1]; 5.78 in [3]; 5.60 in assay [4]; 6.06 in assay [6]; 6.70 in assay [7]. The Ratio in assay [2] turned out to be 17; in assay [5] it was 2.

Take `CC(=O)N1CCN(c2ccc(OCC3COC(Cn4ccnc4)(c4ccc(Cl)cc4Cl)O3)cc2)CC1` (stereo not given) [KETOCONAZOLE]: the pKd is 5.13 in assay [1] (read-out: Kd); 5.34 in assay [3]; 5.24 in assay [4]; 6.49 in assay [9]; 5.13 in [6]. In assay [8], the Ratio came out at 3.

With `Clc1ccc(COC(Cn2ccnc2)c2ccc(Cl)cc2Cl)c(Cl)c1` (stereo not given) [MICONAZOLE], the pKd in assay [1] (read-out: Kd) is 5.25; in assay [3] it was 6.03; in [4], 5.61; in assay [6] it was 5.94; in [7] it was 6.70. The Ratio in [2] stood at 17; in [5], 2.

In the case of `CCC(C)n1ncn(-c2ccc(N3CCN(c4ccc(OCC5COC(Cn6cncn6)(c6ccc(Cl)cc6Cl)O5)cc4)CC3)cc2)c1=O` (stereo not given) [ITRACONAZOLE], the pKd in assay [1] (read-out: Kd) was 5.95; in assay [3], 5.52; in [4], 6.11; in assay [6], 5.90. Moreover, the Ratio in assay [8] stood at 3.

Regarding `Clc1ccccc1C(c1ccccc1)(c1ccccc1)n1ccnc1` [CLOTRIMAZOLE], the pKd is 5.58 in assay [1] (read-out: Kd); 6.37 in [3]; 4.88 at Cytochrome P450 130; 5.92 in [4]; 6.21 in [6].

For `OC(Cn1cncn1)(Cn1cncn1)c1ccc(F)cc1F` [FLUCONAZOLE], the figures for the negative logarithm of the Kd (pKd) (in assay [3]; on Mycocyclosin synthase; in [6]) were 5.23, 5.22 and 4.71, respectively.

`C[C@@H](c1ncncc1F)[C@](O)(Cn1cncn1)c1ccc(F)cc1F` [VORICONAZOLE]: the pKd is 4.71 in assay [1] (read-out: Kd); 4.88 in [10]; 5.34 in assay [3]; 4.75 in [11]; 5.01 in assay [13]; 4.70 in assay [14]. The pKd in assay [15] is 4.47; in assay [16], 5.08; in [4] it was 5.49; in [6] it was 5.23. The Ratio was 3 in assay [8] and 12 in [12].

Source of the values: ChEMBL document CHEMBL1671646, “Identification, characterization, and azole-binding properties of Mycobacterium smegmatis CYP164A2, a homolog of ML2088, the sole cytochrome P450 gene of Mycobacterium leprae” (Antimicrob Agents Chemother, 2009).
